Results on one compound are retold here after US20040106653A1, “Aminoalcohol derivatives” (FUJISAWA PHARMACEUTICAL CO., LTD., priority 2002, published 2004).

The experiment relates to carbachol-induced increase in intravesical pressure (IVP) in anesthetized dog. Briefly: Effect on the increase in intravesical pressure induced by carbachol in anesthetized dog. The experiment is classed as in vivo. As to conditions: 0.032 mg/kg, intravenous; female Beagle dogs under halothane anesthesia; carbachol 1.8 μg/kg. How it is done: Effect on the increase in intravesical pressure induced by carbachol in anesthetized dog Test Method Female Beagle dogs weighing 8.0-15.0 kg were fasted for 24 hours and maintained under halothane anesthesia. A 12F Foley catheter was lubricated with water soluble jelly, inserted into the urethral orifice and advanced approximately 10 cm until the balloon tip was placed well inside the bladder. The balloon was then inflated with 5 ml of room air and catheter slowly withdrawn just part the first resistance that is felt at the bladder neck. Urine was completely drained out through the catheter, and 30 ml of biological saline was infused. The catheter was connected to pressure transducer, and intravesical pressure was continuously recorded. Intravenous administration of test compound (I) inhibited carbachol (1.8 μg/kg)-induced increase in intravesical pressure (IVP).

SMILES strings stand for the structures.

As to `C[C@H](Cc1ccc(S(=O)(=O)c2ccc(C(=O)N(C)CC(=O)O)cc2)cc1)NC[C@H](O)c1cccc(Cl)c1.Cl` [Test Compound (1), [[4-[[4-[(2R)-2-[[(2R)-2-(3-Chlorophenyl)-2-hydroxyethyl]amino]propyl]phenyl]sulfonyl]benzoyl]-(methyl)amino]acetic acid hydrochloride], the “% inhibition of carbachol-induced increase in IVP” value amounted to 80.8%.
